Test results reported in PubChem BioAssay (NCI).
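96-well plates; 48 h exposure; 5 concentrations. Endpoints by linear interpolation between flanking doses. Not reached: highest tested concentration assigned. TGI: concentration producing complete growth inhibition.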

Key:
Test in all cases: NCI-60 cell line screen, 48 h
[1] = test system: UACC-257 melanoma
[2] = test system: SF-268 CNS
[3] = test system: RXF 393 renal
[4] = test system: HOP-92 NSCLC
[5] = test system: UACC-62 melanoma
[6] = test system: K-562 leukemia
[7] = test system: MALME-3M melanoma
[8] = test system: EKVX NSCLC
[9] = test system: NCI-H226 lung
[10] = test system: HT29 colon
[11] = test system: NCI-H522 lung
[12] = test system: SF-539 CNS
[13] = test system: HL-60(TB) leukemia
[14] = test system: MOLT-4 leukemia
[15] = test system: M14 melanoma
[16] = test system: DU-145 prostate
[17] = test system: OVCAR-5 ovarian
[18] = test system: UO-31 renal
[19] = test system: OVCAR-8 ovarian
[20] = test system: SNB-19 CNS
[21] = test system: NCI-H460 lung
[22] = test system: SK-OV-3 ovarian
[23] = test system: NCI-H23 lung
[24] = test system: KM12 colon
[25] = test system: SF-295 CNS
[26] = test system: ACHN renal
[27] = test system: HS 578T breast
[28] = test system: SW-620 colon
[29] = test system: 786-0 renal
[30] = test system: OVCAR-3 ovarian
[31] = test system: HCT-116 colon
[32] = test system: PC-3 prostate
[33] = test system: SR leukemia
[34] = test system: HCC-2998 colon
[35] = test system: SN12C renal
[36] = test system: IGROV1 ovarian
[37] = test system: SK-MEL-28 melanoma
[38] = test system: HOP-62 NSCLC
[39] = test system: SNB-75 CNS
[40] = test system: MDA-N
[41] = test system: MDA-MB-435
[42] = test system: HCT-15 colon
[43] = test system: LOX IMVI melanoma
[44] = test system: A549 NSCLC
[45] = test system: BT-549 breast
[46] = test system: OVCAR-4 ovarian
[47] = test system: SK-MEL-5 melanoma
[48] = test system: SK-MEL-2 melanoma
[49] = test system: MCF7 breast
[50] = test system: COLO 205 colon
[51] = test system: CAKI-1 renal
[52] = test system: T-47D breast
[53] = test system: NCI/ADR-RES ovarian
[54] = test system: CCRF-CEM leukemia
[55] = test system: RPMI-8226 leukemia
[56] = test system: A498 renal
[57] = test system: U251 CNS
[58] = test system: MDA-MB-231 breast
[59] = test system: TK-10 renal

With `COc1ccc(C)cc1Nc1nnc(-c2ccccc2N)s1` the TGI [1] was > 100 µM, the TGI [2] was > 100 µM and the TGI [3] was > 100 µM. For the same molecule, the TGI [4] was > 100 µM, the TGI [5] was > 100 µM and the TGI [6] was > 100 µM. The TGI [7] was > 100 µM, the TGI [8] was 90.5 µM and the TGI [9] was > 100 µM. For the same molecule, the TGI [10] was > 100 µM, the TGI [11] was 58.7 µM and the TGI [12] was > 100 µM. The TGI [13] was 73 µM, the TGI [14] was 15 µM and the TGI [15] was > 100 µM. For the same molecule, the TGI [16] was > 100 µM, the TGI [17] was > 100 µM and the TGI [18] was > 100 µM. For the same molecule, the TGI [19] was > 100 µM, the TGI [20] was > 100 µM and the TGI [21] was > 100 µM. For the same molecule, the TGI [22] was > 100 µM, the TGI [23] was > 100 µM and the TGI [24] was > 100 µM. The TGI [25] was > 100 µM, the TGI [26] was > 100 µM and the TGI [27] was > 100 µM. For the same molecule, the TGI [28] was > 100 µM, the TGI [29] was > 100 µM and the TGI [30] was > 100 µM. For the same molecule, the TGI [31] was > 100 µM, the TGI [32] was > 100 µM and the TGI [33] was 46.7 µM. For the same molecule, the TGI [34] was > 100 µM, the TGI [35] was > 100 µM and the TGI [36] was > 100 µM. The TGI [37] was > 100 µM, the TGI [38] was > 100 µM and the TGI [39] was > 100 µM. The TGI [40] was > 100 µM, the TGI [41] was > 100 µM and the TGI [42] was > 100 µM. For the same molecule, the TGI [43] was > 100 µM, the TGI [44] was > 100 µM and the TGI [45] was > 100 µM. For the same molecule, the TGI [46] was > 100 µM, the TGI [47] was 29.4 µM and the TGI [48] was 52.3 µM. For the same molecule, the TGI [49] was > 100 µM, the TGI [50] was > 100 µM and the TGI [51] was > 100 µM. The TGI [52] was > 100 µM, the TGI [53] was > 100 µM and the TGI [54] was > 100 µM. The TGI [55] was 53.4 µM and the TGI [56] was > 100 µM.
In the case of `Cc1cn(Cc2cnnn2CC2OC(n3cc(C)c(=O)[nH]c3=O)CC2O)c(=O)[nH]c1=O` (configuration not stated), the TGI [1] is reported as > 100 µM, the TGI [2] is reported as > 100 µM and the TGI [57] is reported as > 100 µM. The TGI [3] was > 100 µM, the TGI [4] was > 100 µM and the TGI [5] was > 100 µM. For the same molecule, the TGI [7] was > 100 µM, the TGI [8] was > 100 µM and the TGI [9] was > 100 µM. The TGI [58] was > 100 µM, the TGI [12] was > 100 µM and the TGI [14] was > 100 µM. For the same molecule, the TGI [15] was > 100 µM, the TGI [16] was > 100 µM and the TGI [17] was > 100 µM. The TGI [18] was > 100 µM, the TGI [19] was > 100 µM and the TGI [20] was > 100 µM. For the same molecule, the TGI [22] was > 100 µM, the TGI [59] was > 100 µM and the TGI [23] was > 100 µM. The TGI [24] was > 100 µM, the TGI [25] was > 100 µM and the TGI [26] was > 100 µM. The TGI [27] was > 100 µM, the TGI [28] was > 100 µM and the TGI [30] was > 100 µM. The TGI [31] was > 100 µM, the TGI [32] was > 100 µM and the TGI [34] was > 100 µM. The TGI [35] was > 100 µM, the TGI [36] was > 100 µM and the TGI [37] was > 100 µM. The TGI [38] was > 100 µM, the TGI [40] was > 100 µM and the TGI [41] was > 100 µM. For the same molecule, the TGI [42] was > 100 µM, the TGI [43] was > 100 µM and the TGI [44] was > 100 µM. The TGI [45] was > 100 µM, the TGI [46] was > 100 µM and the TGI [47] was > 100 µM. For the same molecule, the TGI [48] was > 100 µM, the TGI [49] was > 100 µM and the TGI [50] was > 100 µM. For the same molecule, the TGI [51] was > 100 µM, the TGI [52] was > 100 µM and the TGI [53] was > 100 µM. For the same molecule, the TGI [54] was > 100 µM, the TGI [55] was > 100 µM and the TGI [56] was > 100 µM.
